What was measured:
[1] = system: HT-29 tumor cells; experiment: Cell growth inhibition assay (CellTiter-Glo), HT-29; type: cell-based, Human; details: Homo sapiens
Method in brief: (§1)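 Cells plated at 500 cells/well in their growth media, dosed next day with nine-step 1:3 compound dilutions (final DMSO 0.2%), then incubated 3 days at 37° C, 5% CO2. Total ATP read by CellTiter-Glo luminescence as a surrogate for cell number; IC50 interpolated from 4-parameter fit versus DMSO controls.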

[2] = system: SK-MEL-28 tumor cells; experiment: Cell growth inhibition assay (CellTiter-Glo), SK-MEL-28; type: cell-based, Human; details: 3 days incubation
Method in brief: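 Readout was CellTiter-Glo luminescence (total ATP, surrogate for cell number) after 3-day exposure at 37° C, 5% CO2 to 1:3 serial compound dilutions in 0.2% final DMSO. Seeding was 500 cells/well; IC50 derived by 4-parameter fit relative to vehicle-treated wells.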

[3] = system: HN5 tumor cells; experiment: Cell growth inhibition assay (CellTiter-Glo), HN5; type: cell-based, Human; details: Homo sapiens, 72 h; 3 days incubation
Method in brief: as §1

[4] = target: T1, EGFR (Homo sapiens, UniProt P00533); experiment: EGFR substrate phosphorylation assay (HTRF); type: biochemical
T1 construct: made in house; host or cells: baculovirus expression system
T1 sequence (P00533 25-1210): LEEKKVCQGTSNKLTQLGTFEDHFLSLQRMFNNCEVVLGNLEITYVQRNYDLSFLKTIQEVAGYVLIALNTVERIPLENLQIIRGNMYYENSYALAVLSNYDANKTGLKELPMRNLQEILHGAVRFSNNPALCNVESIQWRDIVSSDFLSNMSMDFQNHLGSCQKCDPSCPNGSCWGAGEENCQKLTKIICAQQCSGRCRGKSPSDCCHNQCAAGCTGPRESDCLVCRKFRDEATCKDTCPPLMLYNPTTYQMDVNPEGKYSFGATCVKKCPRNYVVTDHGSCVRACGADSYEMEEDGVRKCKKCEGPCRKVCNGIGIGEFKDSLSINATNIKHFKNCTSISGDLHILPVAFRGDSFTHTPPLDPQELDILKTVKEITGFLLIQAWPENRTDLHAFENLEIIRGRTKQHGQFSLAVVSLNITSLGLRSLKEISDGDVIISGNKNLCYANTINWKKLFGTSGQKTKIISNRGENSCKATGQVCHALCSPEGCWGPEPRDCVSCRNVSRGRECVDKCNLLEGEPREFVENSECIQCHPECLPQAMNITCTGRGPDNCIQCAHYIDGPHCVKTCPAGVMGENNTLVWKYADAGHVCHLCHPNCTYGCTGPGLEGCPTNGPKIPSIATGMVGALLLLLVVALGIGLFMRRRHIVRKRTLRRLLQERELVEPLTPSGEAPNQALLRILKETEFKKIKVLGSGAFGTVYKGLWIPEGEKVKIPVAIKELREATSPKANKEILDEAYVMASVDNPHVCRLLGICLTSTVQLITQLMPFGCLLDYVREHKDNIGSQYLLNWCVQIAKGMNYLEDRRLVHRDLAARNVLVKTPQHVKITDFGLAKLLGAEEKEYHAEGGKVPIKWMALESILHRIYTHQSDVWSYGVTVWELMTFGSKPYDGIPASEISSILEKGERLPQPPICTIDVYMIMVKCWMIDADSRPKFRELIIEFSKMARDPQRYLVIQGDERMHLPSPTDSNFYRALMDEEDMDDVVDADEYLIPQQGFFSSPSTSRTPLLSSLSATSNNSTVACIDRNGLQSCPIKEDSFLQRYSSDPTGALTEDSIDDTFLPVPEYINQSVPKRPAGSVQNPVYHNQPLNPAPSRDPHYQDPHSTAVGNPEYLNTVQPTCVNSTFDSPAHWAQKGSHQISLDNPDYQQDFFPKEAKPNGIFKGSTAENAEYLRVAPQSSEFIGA
Method in brief: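 Baculovirus-expressed EGFR (0.8 nM) or ErbB2 (10 nM) in enzyme mix, preincubated 1 h at 20 °C with compound (0.00027–47.6 μM final), then 90 min at 20 °C with substrate mix of 20 μM ATP, 0.8 uM biotinylated Peptide C, MnCl2, MOPS pH 7.5. Phosphotyrosine by HTRF; pIC50 reported.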

| SMILES | IC50 [1] | IC50 ([2]; Homo sapiens, SK-MEL-28, 72 h) | IC50 [3] | IC50 [4] | IC50 [2] | EGFR Activity [4] |
| --- | --- | --- | --- | --- | --- | --- |
| CC(=O)N1CCN(c2ccc(Nc3nccc(-c4sc(C(C)C)nc4-c4cccc(NS(=O)(=O)c5cccc(C(F)(F)F)c5)c4)n3)cn2)CC1 [Example 70] | > 1 µM | 0.1 to 1 µM | > 1 µM | > 1 µM |  |  |
| CC(C)c1nc(-c2ccc(F)c(NS(=O)(=O)c3c(F)cccc3F)c2)c(-c2ccnc(Nc3ccc(N4CCN5CCOC[C@H]5C4)nc3)n2)s1 [Example 97] | > 1 µM | < 0.1 µM | > 1 µM | 0.1 to 1 µM |  |  |
| CCOc1ccc(Nc2nccc(-c3sc(C(C)C)nc3-c3ccc(F)c(NS(=O)(=O)c4c(F)cccc4F)c3)n2)cc1N1CCN(CCF)CC1 [Example 98] | > 1 µM | 0.1 to 1 µM | > 1 µM | < 0.1 µM |  |  |
| CC(C)(C)c1nc(-c2ccc(F)c(NS(=O)(=O)c3c(F)cccc3F)c2)c(-c2ccnc(Nc3ccc(N4CCN(CCF)CC4)c(F)c3)n2)s1 [Example 99] | > 1 µM | 0.1 to 1 µM | > 1 µM | > 1 µM |  |  |
| CC(C)c1nc(-c2ccc(F)c(NS(=O)(=O)c3ccccc3C#N)c2)c(-c2ccnc(Nc3ccc(N4CCOCC4)nc3)n2)s1 [Example 107] | 0.1 to 1 µM | 0.1 to 1 µM | > 1 µM | 0.1 to 1 µM |  |  |
| CCOc1ccc(Nc2nccc(-c3sc(N4CCCC4)nc3-c3cccc(NS(=O)(=O)c4c(F)cccc4F)c3)n2)cc1N1CCN(CCS(C)(=O)=O)CC1 [Example 109] | 0.1 to 1 µM | < 0.1 µM | > 1 µM | < 0.1 µM |  |  |
| CN(C)c1nc(-c2ccc(F)c(NS(=O)(=O)c3c(F)cccc3F)c2)c(-c2ccnc(Nc3ccc(N4CCN(S(C)(=O)=O)CC4)nc3)n2)s1 [Example 112] | 0.1 to 1 µM | 0.1 to 1 µM | > 1 µM | 0.1 to 1 µM |  |  |
| CC(C)c1nc(-c2ccc(F)c(NS(=O)(=O)c3c(F)cccc3F)c2)c(-c2ccnc(Nc3cccc(CCS(N)(=O)=O)c3)n2)s1 [Example 113] | > 1 µM | 0.1 to 1 µM | > 1 µM | 0.1 to 1 µM |  |  |
| O=S(=O)(Nc1cc(-c2nc(N3CCCC3)oc2-c2ccnc(Nc3ccc(N4CCN(CCF)CC4)c(F)c3)n2)ccc1F)c1c(F)cccc1F [Example 114] | > 1 µM | 0.1 to 1 µM | > 1 µM | > 1 µM |  |  |
| Cc1cc(Nc2nccc(-c3sc(C(C)C)nc3-c3ccc(F)c(NS(=O)(=O)c4c(F)cccc4F)c3)n2)ccn1 [Example 116] | 0.1 to 1 µM | < 0.1 µM | > 1 µM | 0.1 to 1 µM |  |  |
| CC(C)c1nc(-c2ccc(F)c(NS(=O)(=O)c3c(F)cccc3F)c2)c(-c2ccnc(Nc3ccnc(N4CCOCC4)c3)n2)s1 [Example 117] | 0.1 to 1 µM | < 0.1 µM | 0.1 to 1 µM | 0.1 to 1 µM |  |  |
| CS(=O)(=O)CCN1CCN(c2ccc(Nc3nccc(-c4oc(N5CCCC5)nc4-c4ccc(F)c(NS(=O)(=O)c5c(F)cccc5F)c4)n3)cc2F)CC1 [Example 119] | 0.1 to 1 µM | 0.1 to 1 µM | > 1 µM | > 1 µM |  |  |
| COc1cc(N2CCN(CCS(C)(=O)=O)CC2)c(C)cc1Nc1nccc(-c2sc(C(C)(C)C)nc2-c2cccc(NS(=O)(=O)c3c(F)cccc3F)c2)n1 [Example 120] | 0.1 to 1 µM | 0.1 to 1 µM | > 1 µM | > 1 µM |  |  |
| O=S(=O)(Nc1cc(-c2nc(N3CCOCC3)sc2-c2ccnc(Nc3ccc(N4CCOCC4)nc3)n2)ccc1F)c1c(F)cccc1F [Example 121] | 0.1 to 1 µM | 0.1 to 1 µM | 0.1 to 1 µM | 0.1 to 1 µM |  |  |
| Cc1cc(N2CCOCC2)ncc1Nc1nccc(-c2sc(N3CCCC3)nc2-c2cccc(NS(=O)(=O)c3c(F)cccc3F)c2)n1 [Example 124] | > 1 µM | 0.1 to 1 µM | > 1 µM | > 1 µM |  |  |
| CN1CCN(c2nc(-c3ccc(F)c(NS(=O)(=O)c4c(F)cccc4F)c3)c(-c3ccnc(Nc4ccc(N5CCOCC5)nc4)n3)s2)CC1 [Example 126] | 0.1 to 1 µM | < 0.1 µM | 0.1 to 1 µM | 0.1 to 1 µM |  |  |
| O=S(=O)(Nc1cc(-c2nc(N3CCOCC3)sc2-c2ccnc(Nc3ccc4c(c3)OCCO4)n2)ccc1F)c1c(F)cccc1F [Example 127] | > 1 µM | 0.1 to 1 µM | > 1 µM | 0.1 to 1 µM |  |  |

The next lines start with results.

| IC50 [1] | IC50 ([2]; Homo sapiens, SK-MEL-28, 72 h) | IC50 [3] | IC50 [4] | IC50 [2] | SMILES | EGFR Activity [4] |
| --- | --- | --- | --- | --- | --- | --- |
| 0.1 to 1 µM | < 0.1 µM | < 0.1 µM | > 1 µM |  | Cc1nc(Cl)sc1S(=O)(=O)Nc1cccc(-c2nc(C(C)C)sc2-c2ccnc(Nc3ccc(N4CCOCC4)nc3)n2)c1 [Example 42] |  |
| 0.1 to 1 µM | < 0.1 µM | > 1 µM | > 1 µM |  | CC(C)c1nc(-c2cccc(NS(=O)(=O)c3c(F)cccc3F)n2)c(-c2ccnc(Nc3ccc(N4CCOCC4)nc3)n2)s1 [Example 44] |  |
| 0.1 to 1 µM | < 0.1 µM | > 1 µM | > 1 µM |  | CC(C)c1nc(-c2cncc(NS(=O)(=O)c3c(F)cccc3F)c2)c(-c2ccnc(Nc3ccc(N4CCOCC4)nc3)n2)s1 [Example 47] |  |
| < 0.1 µM | < 0.1 µM | > 1 µM | > 1 µM |  | COc1ccc(S(=O)(=O)Nc2cccc(-c3nc(C(C)C)sc3-c3ccnc(Nc4ccc(N5CCOCC5)nc4)n3)c2)cn1 [Example 49] |  |
| < 0.1 µM | < 0.1 µM | 0.1 to 1 µM | > 1 µM |  | CC(C)c1nc(-c2cccc(NS(=O)(=O)c3cccs3)c2)c(-c2ccnc(Nc3ccc(N4CCOCC4)nc3)n2)s1 [Example 51] |  |
| < 0.1 µM | < 0.1 µM | 0.1 to 1 µM | 0.1 to 1 µM |  | CC(C)c1nc(-c2cccc(NS(=O)(=O)c3cccnc3)c2)c(-c2ccnc(Nc3ccc(N4CCOCC4)nc3)n2)s1 [Example 52] |  |
| < 0.1 µM | < 0.1 µM | < 0.1 µM | > 1 µM |  | CC(C)c1nc(-c2cccc(NS(=O)(=O)c3ccco3)c2)c(-c2ccnc(Nc3ccc(N4CCOCC4)nc3)n2)s1 [Example 53] |  |
| 0.1 to 1 µM | < 0.1 µM | > 1 µM | > 1 µM |  | CC(=O)N1CCN(c2ccc(Nc3nccc(-c4oc(C(C)C)nc4-c4cccc(NS(=O)(=O)c5c(F)cccc5F)c4)n3)cn2)CC1 [Example 56] |  |
| 0.1 to 1 µM | < 0.1 µM | 0.1 to 1 µM | 0.1 to 1 µM |  | CC(C)c1nc(-c2cccc(NS(=O)(=O)c3c(F)cccc3F)c2)c(-c2ccnc(Nc3ccc(N4CCOCC4)c(F)c3)n2)o1 [Example 57] |  |
| 0.1 to 1 µM | < 0.1 µM | 0.1 to 1 µM | 0.1 to 1 µM |  | Nc1nc(-c2cccc(NS(=O)(=O)c3c(F)cccc3F)c2)c(-c2ccnc(Nc3ccc(N4CCOCC4)nc3)n2)s1 [Example 62] |  |
| 0.1 to 1 µM |  | 0.1 to 1 µM |  | 0.1 to 1 µM | CCNc1nc(-c2cccc(NS(=O)(=O)c3ccccc3)c2)c(-c2ccnc(Nc3ccc(OCCN4CCCC4)c(F)c3)n2)s1 [Example 65] | +++ (at least one pIC50 measurement of greater than 7 against EGFR) |
| 0.1 to 1 µM | < 0.1 µM | < 0.1 µM | > 1 µM |  | CC(C)c1nc(-c2ccnc(NS(=O)(=O)c3c(F)cccc3F)c2)c(-c2ccnc(Nc3ccc(N4CCN(CCF)CC4)c(F)c3)n2)s1 [Example 100] |  |
| 0.1 to 1 µM | 0.1 to 1 µM | 0.1 to 1 µM | > 1 µM |  | CC(C)c1nc(-c2cc(F)c(F)c(NS(=O)(=O)c3cccc(F)c3)c2)c(-c2ccnc(Nc3ccc(N4CCN(CCF)CC4)c(F)c3)n2)s1 [Example 101] |  |
| 0.1 to 1 µM | 0.1 to 1 µM | > 1 µM | > 1 µM |  | CC(C)c1nc(-c2ccc(F)c(NS(=O)(=O)c3c(F)cccc3F)c2)c(-c2ccnc(Nc3ccncc3)n2)s1 [Example 102] |  |
| 0.1 to 1 µM | 0.1 to 1 µM | 0.1 to 1 µM | 0.1 to 1 µM |  | CN1CCC(c2nc(-c3ccc(F)c(NS(=O)(=O)c4c(F)cccc4F)c3)c(-c3ccnc(Nc4ccc(N5CCOCC5)nc4)n3)s2)CC1 [Example 106] |  |
| < 0.1 µM | < 0.1 µM | 0.1 to 1 µM | 0.1 to 1 µM |  | O=S(=O)(Nc1cccc(-c2nc(N3CCOCC3)sc2-c2ccnc(Nc3ccc(N4CCOCC4)nc3)n2)c1F)c1c(F)cccc1F [Example 122] |  |
| < 0.1 µM | < 0.1 µM | 0.1 to 1 µM | > 1 µM |  | CC(C)c1nc(-c2cccc(NS(=O)(=O)c3c(F)cccc3F)c2F)c(-c2ccnc(Nc3ccc(N4CCOCC4)nc3)n2)s1 [Example 123] |  |
| < 0.1 µM | 0.1 to 1 µM | 0.1 to 1 µM | < 0.1 µM |  | COc1cc(N2CCN(CCS(C)(=O)=O)CC2)c(C)cc1Nc1nccc(-c2sc(N3CCOCC3)nc2-c2cccc(NS(=O)(=O)c3c(F)cccc3F)c2)n1 [Example 128] |  |
| < 0.1 µM | < 0.1 µM | 0.1 to 1 µM | > 1 µM |  | CS(=O)(=O)c1cccc(Nc2nccc(-c3sc(N4CCOCC4)nc3-c3cccc(NS(=O)(=O)c4c(F)cccc4F)c3F)n2)c1 [Example 130] |  |
| < 0.1 µM | < 0.1 µM | > 1 µM | > 1 µM |  | Cc1cc(N2CCN(CCS(C)(=O)=O)CC2)ncc1Nc1nccc(-c2sc(C(C)C)nc2-c2cccc(NS(=O)(=O)c3c(F)cccc3F)c2)n1 [Example 131] |  |
| < 0.1 µM | < 0.1 µM | 0.1 to 1 µM | > 1 µM |  | Cc1nc(-c2cccc(NS(=O)(=O)c3c(F)cccc3F)c2)c(-c2ccnc(Nc3ccc(N4CCOCC4)nc3)n2)s1 [Example 133] |  |
